# Measured values from patent US7232578B2, “Pharmaceutical composition inducing cancer cell differentiation and the use for treatment and prevention of cancer thereof” (Bio Grand Co., Ltd., priority 2005, dated 2007).
# Legend:
# HL-60 cells = assay: Differentiation helper inducer activity (reductive index, retinoic acid-induced HL-60 differentiation, NBT+); format: cell-based; conditions: for Concentration to reach 0.5 reductive index: methyltransferase inhibitors as differentiation helper inducers, HL-60, retinoic acid, 96 hours; for Concentration to reach 0.5 reductive index (effective dose of differentiation inducer reduced to 50%): MAT inhibitors as differentiation helper inducers
# Protocol: The differentiation of cancer cells was measured by using leukemic cancer cells HL-60 to quantitate the NBT+ cells. First, HL-60 cells were subcultured at an initial cell density 1.5×10^5 cells/ml, 10 ml/flask. A set of four flasks were used as the control, wherein only retinoic acid was added as differentiation inducer, the amount of which was adjusted to induce NBT+ cells to the range of 15% to 60%. Another flask was used as the blank which was added the solution only. The total amount of methanol in which retinoic acid was dissolved should not exceed 2%, so as not to affect the differentiation of cancer cells. Each of other sets also comprises four flasks, which were added smaller amounts of retinoic acid, and a blank flask with only the solvent. Different amounts of the differentiation helper inducers were added in each set. The cell numbers in every flask were counted after incubation for 96 hours, and NBT was assayed according to the method of Example 4. Generally, the natural differentiation of the HL-60 cells, i.e. without the action of any of the additives, is usually lower than 4%. In the sets containing only differentiation helper inducer, the differentiation of cells is less than 10%. The value of NBT+ in each flask is required to subtract the value of the blank control.
# The value of ED50, i.e., the amount of the differentiation inducer required when NBT+ is 50%, can be obtained by plotting the amount against NBT+. The reductive index can be calculated from the ED50 value. Reductive index=ED50 in the presence of differentiation helper inducer/ED50 with cell differentiation inducer only. The lower the reductive index, the higher the activity of the differentiation helper induced.
# HL-60 cancer cells = assay: Completeness of retinoic acid-induced differentiation with helper inducers (NBT test); format: cell-based; conditions: 96 hours, FIG. 5
# Protocol: Differentiation helper inducers can not only decrease the effective amount of the differentiation inducer, but also promote the completeness of differentiation. HL-60 cancer cells were subcultured at an initial cell density of 1.5×10^5 cells/ml. The culture flasks were grouped into three sets; each set includes 4-5 flasks. One flask was used as the blank without additives. One set was added 0.025-0.15 μM retinoic acid as the control; the other two sets were added 4 μM of uroerythrin or vitamin B2. NBT test was conducted as described in Example 4 after incubation for 96 hours. The values thus obtained were subtracted with the value obtained by the blank without additives.
# [1] = system: HBL-100 breast cancer cells; assay: Inhibition of colony formation of HBL-100 breast cancer cells; format: cell-based, human
# Protocol: The activity of cancer cell colony formation is determined by using HBL-100 breast cancer cells according to the method described in Example 4, which is expressed by the percentage of the activity of cancer cell colony formation in a control group in which none of the chemicals is added. A group in which thymidine is used alone, a group in which CDA-II is used alone, and a group in which thymidine and CDA-II are used together (1:1) were tested. […] The synergistic effect is remarkable.
# The activity of cancer cell colony formation is determined by using HBL-100 breast cancer cells according to the method described in Example 4. Each culture flask contains 5 ml medium, which contains 3000 HBL-100 cells and different amounts of CDA-11, vitamin C or vitamin B17. After incubation at 37° C. for 5 days, the cells were stained with Giemsa, and numbers of colonies with more than 8 cells were counted under a microscope.
# Another indication of the anticancer activity of CDA-II is the inhibition of colony formation of HBL-100 breast cancer cell. At the beginning, the breast cancer cells growing at the exponential phase were washed with HBS solution, then about 2 ml 0.05% trypsin-0.53 mM EDTA was added, and the solution was incubated at 37° C. for 10 minutes. Thereafter, the cell density was measured, then an aliquot was taken and diluted to 3×10^3 cells/ml. 0.5 ml of the diluted solution was added into 4.5 ml culture medium with or without CDA-II and incubated at 37° C. Five days later, the medium was discarded, and the cells were washed with isotonic saline, then methanol was added to fix cells for 15 minutes. The fixed cells were stained for 30 minutes with Giemsa staining solution diluted 20 fold. After the staining solution was discarded, the cells were washed with water and dried. The colony number above 8 cells was counted under a microscope to determine the anticancer activity of CDA-II (the result is shown in table 1).
# The experiment was carried out according to FIG. 6. HBL-100 cells were cultured with different dosages of CDA-II, vitamin C and vitamin B17 alone, and with the combination of CDA-II and vitamin C, or the combination of CDA-II and vitamin B17.
# [2] = retinoic acid combined with 4 μM helper inducer
smiles,measurement,setting,value
CC[n+]1c(-c2ccccc2)c2cc(N)ccc2c2ccc(N)cc21 [ethidium bromide],Concentration to reach 0.5 reductive index,HL-60 cells,0.95 µM
O=C(O)CNC(=O)c1ccccc1 [hippuric acid],Concentration to reach 0.5 reductive index (effective dose of differentiation inducer reduced to 50%),HL-60 cells,8 mM
CCN(CC)CCNc1ccc(CO)c2sc3ccccc3c(=O)c12 [hycanthone],Concentration to reach 0.5 reductive index,HL-60 cells,2 µM
O=C(O)Cc1ccccc1 [phenylacetic acid],Concentration to reach 0.5 reductive index (effective dose of differentiation inducer reduced to 50%),HL-60 cells,4 mM
CC1=C(/C=C/C(C)=C/C=C/C(C)=C/C(=O)O)C(C)(C)CCC1 [retinoic acid],Extent of differentiation (NBT+),HL-60 cancer cells; differentiation inducer (0.025-0.15 μM retinoic acid) used alone,about 85%
C=CC1=C(C)C(=O)N=C1C=c1[nH]c(=Cc2[nH]c(O)c(C)c2CCC(=O)O)c(CCC(=O)O)c1C [uroerythrin],Extent of differentiation (NBT+),HL-60 cancer cells; [2],100%
same,Concentration to reach 0.5 reductive index,HL-60 cells,1.8 µM
"Cc1cc2nc3c(=O)[nH]c(=O)nc-3n(C[C@H](O)[C@H](O)[C@H](O)CO)c2cc1C [vitamin B2, riboflavin]",Extent of differentiation (NBT+),HL-60 cancer cells; [2],100%
same,Concentration to reach 0.5 reductive index,HL-60 cells,3.0 µM
N#CC(O[C@@H]1O[C@H](CO[C@@H]2O[C@H](CO)[C@@H](O)[C@H](O)[C@H]2O)[C@@H](O)[C@H](O)[C@H]1O)c1ccccc1 (stereo partly shown) [vitamin B17],"IC50, inhibition of the formation of colonies of HBL-100 human breast cancer cells","[1]; 5 days, FIG. 7",130 µg/mL
same,"Colony formation of HBL-100 cells: inhibition percentage, administered alone",[1]; vitamin B17 0.05 mg/ml alone,20%
O=C1O[C@H]([C@@H](O)CO)C(O)=C1O [vitamin C],IC50,"[1]; Homo sapiens, HBL-100, 120 h, 5 days, FIG. 7, read-out: IC50, inhibition of the formation of colonies of HBL-100 human breast cancer cells",530 µg/mL
same,inhibition at 200 µg/mL,"[1]; Homo sapiens, HBL-100, vitamin C 0.2 mg/ml alone, read-out: Colony formation of HBL-100 cells: inhibition percentage, administered alone",12%
